Measurements taken from US12564555B2, “Continuous processes for manufacturing impregnated porous carriers and for manufacturing pharmaceuticals containing impregnated porous carriers” (Rutgers, The State University of New Jersey, priority 2019, dated 2026).

Assay: Dissolution test, rotating paddle method, DI water (Example 2)
Assay type: physicochemical
Conditions: 900 ml DI water, 50 rpm, 37° C., FIG. 4
Description: Dissolution Behavior: As part of this study, dissolution tests were performed on both pure IBU and impregnated IBU to check the effect of the impregnation process on the dissolution rate and extent of IBU. Dissolution was carried out in 900 ml of DI water at 50 rpm and 37° C. using the rotating paddle method. Samples were withdrawn at predetermined time intervals (every 3 minutes) for 60 min using a peristaltic pump attached to the dissolution device. The amount of released IBU was quantified spectrophotometrically.

CC(C)Cc1ccc(C(C)C(=O)O)cc1 (stereo not shown) [pure crystal IBU, Ibuprofen]
IBU released within 5 minutes: less than 10%
